For six compounds, inhibition results are on record in ChEMBL document CHEMBL2406948, “Skeletal rearrangement of seven-membered iminosugars: synthesis of (-)-adenophorine, (-)-1-epi-adenophorine and derivatives and evaluation as glycosidase inhibitors” (Bioorg Med Chem, 2013).

Experiment [1] deals with Rhizopus. Kind of experiment: Inhibition of Rhizopus sp. amyloglucosidase at 1000 uM.
Experiment [2] concerns the target T1, Uncharacterized protein (Sus scrofa) (UniProt I3LIR5).
T1 sequence (whole entry): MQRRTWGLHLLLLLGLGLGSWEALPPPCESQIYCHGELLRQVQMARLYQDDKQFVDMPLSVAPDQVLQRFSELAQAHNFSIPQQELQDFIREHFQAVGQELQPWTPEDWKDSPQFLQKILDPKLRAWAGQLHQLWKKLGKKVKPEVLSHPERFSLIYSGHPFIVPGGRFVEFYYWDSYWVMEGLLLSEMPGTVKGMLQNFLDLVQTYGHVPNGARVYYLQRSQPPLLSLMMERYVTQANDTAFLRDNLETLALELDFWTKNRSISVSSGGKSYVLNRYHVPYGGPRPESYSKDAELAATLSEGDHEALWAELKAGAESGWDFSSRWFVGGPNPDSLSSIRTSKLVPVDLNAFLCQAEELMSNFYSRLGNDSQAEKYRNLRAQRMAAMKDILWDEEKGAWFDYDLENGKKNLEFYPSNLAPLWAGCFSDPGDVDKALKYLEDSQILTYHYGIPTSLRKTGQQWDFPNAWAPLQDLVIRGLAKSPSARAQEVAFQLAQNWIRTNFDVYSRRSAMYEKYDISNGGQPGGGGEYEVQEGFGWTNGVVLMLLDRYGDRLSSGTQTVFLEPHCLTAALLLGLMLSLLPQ
The experiment is described as follows: Inhibition of pig kidney alpha, alpha trehalase at 1000 uM.

For experiment [3], the system named is Oryza sativa. Kind of experiment: Inhibition of rice alpha-glucosidase at 1000 uM.
In experiment [4] the test system is Aspergillus niger. Kind of experiment: Inhibition of Aspergillus niger beta-glucosidase at 1000 uM.
Experiment [5] deals with Alpha-galactosidase (Coffea arabica) (UniProt Q42656). Kind of experiment: Inhibition of coffee bean alpha-galactosidase at 1000 uM.
Sequence of Alpha-galactosidase (Coffea arabica) (Q42656 16-378 limits assumed): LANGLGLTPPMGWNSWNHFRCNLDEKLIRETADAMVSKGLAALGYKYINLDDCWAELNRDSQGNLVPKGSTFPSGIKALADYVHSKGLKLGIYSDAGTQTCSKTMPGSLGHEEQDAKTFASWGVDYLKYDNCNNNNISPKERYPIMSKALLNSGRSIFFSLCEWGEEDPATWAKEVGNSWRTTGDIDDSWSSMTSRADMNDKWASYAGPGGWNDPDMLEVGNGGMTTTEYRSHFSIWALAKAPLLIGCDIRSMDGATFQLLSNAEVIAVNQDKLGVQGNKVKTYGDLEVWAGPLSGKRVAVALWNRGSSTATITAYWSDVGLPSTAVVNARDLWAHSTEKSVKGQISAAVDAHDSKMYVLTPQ
The subject of experiment [6] is Prunus dulcis. The experiment is described as follows: Inhibition of almond beta-glucosidase at 1000 uM.
Experiment [7] concerns the target T2, Beta-glucuronidase (Bos taurus) (UniProt A3KMY8).
T2 sequence (whole entry): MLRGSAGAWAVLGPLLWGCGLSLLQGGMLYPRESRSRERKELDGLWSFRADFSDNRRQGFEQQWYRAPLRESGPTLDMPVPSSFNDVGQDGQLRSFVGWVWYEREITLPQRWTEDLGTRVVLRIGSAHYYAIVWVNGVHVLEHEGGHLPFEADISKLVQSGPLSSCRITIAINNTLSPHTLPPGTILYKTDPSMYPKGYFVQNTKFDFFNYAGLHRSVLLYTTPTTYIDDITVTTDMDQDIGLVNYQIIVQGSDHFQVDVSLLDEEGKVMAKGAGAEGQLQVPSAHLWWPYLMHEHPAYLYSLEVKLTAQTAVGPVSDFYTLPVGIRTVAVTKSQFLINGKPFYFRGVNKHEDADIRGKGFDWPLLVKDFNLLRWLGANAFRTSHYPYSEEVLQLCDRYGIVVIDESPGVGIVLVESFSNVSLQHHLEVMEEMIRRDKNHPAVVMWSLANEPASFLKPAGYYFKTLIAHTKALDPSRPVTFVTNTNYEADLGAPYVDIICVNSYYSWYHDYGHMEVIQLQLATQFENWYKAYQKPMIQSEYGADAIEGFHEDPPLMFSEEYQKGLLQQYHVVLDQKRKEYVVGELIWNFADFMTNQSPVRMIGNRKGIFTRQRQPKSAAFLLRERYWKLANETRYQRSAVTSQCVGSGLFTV
Kind of experiment: Inhibition of bovine liver beta-glucuronidase at 1000 uM.

Experiment [8] deals with Aspergillus niger. The experiment is described as follows: Inhibition of Aspergillus niger amyloglucosidase at 1000 uM.
Experiment [9] has as its target T3, Alpha-glucosidase (Aspergillus niger) (UniProt P56526).
T3 sequence (whole entry): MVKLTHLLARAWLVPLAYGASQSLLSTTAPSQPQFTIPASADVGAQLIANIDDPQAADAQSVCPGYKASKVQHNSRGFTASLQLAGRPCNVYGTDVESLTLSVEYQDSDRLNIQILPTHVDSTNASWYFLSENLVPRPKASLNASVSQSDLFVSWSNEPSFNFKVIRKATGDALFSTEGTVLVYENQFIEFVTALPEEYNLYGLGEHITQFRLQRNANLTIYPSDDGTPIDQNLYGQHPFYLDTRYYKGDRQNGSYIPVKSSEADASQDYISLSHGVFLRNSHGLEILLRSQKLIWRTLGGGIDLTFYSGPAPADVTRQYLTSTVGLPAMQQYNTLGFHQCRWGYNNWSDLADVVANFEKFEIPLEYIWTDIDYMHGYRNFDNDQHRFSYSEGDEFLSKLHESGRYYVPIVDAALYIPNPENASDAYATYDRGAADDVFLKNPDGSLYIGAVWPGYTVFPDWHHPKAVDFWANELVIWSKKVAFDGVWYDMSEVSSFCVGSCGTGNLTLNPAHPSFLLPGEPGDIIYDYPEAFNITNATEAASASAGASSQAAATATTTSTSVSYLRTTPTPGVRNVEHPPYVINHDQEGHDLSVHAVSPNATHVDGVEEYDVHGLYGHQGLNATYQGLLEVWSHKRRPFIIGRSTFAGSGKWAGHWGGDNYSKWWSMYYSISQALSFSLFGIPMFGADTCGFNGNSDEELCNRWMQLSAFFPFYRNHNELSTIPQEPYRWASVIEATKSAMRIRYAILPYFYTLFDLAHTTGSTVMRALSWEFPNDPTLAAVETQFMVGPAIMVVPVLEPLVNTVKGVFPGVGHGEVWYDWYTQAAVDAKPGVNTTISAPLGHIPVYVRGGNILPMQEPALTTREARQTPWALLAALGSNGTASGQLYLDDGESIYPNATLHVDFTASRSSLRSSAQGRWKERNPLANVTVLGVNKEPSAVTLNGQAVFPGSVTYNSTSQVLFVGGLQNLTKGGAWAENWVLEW
The experiment is described as follows: Inhibition of Aspergillus niger alpha-glucosidase at 1000 uM.

The subject of experiment [10] is Helix pomatia. Kind of experiment: Inhibition of snail beta-mannosidase at 1000 uM.
Experiment [11] concerns Penicillium decumbens. Kind of experiment: Inhibition of Penicillium decumbens alpha-L-rhamnosidase at 1000 uM.
Experiment [12] is filed under the species Rattus norvegicus. Kind of experiment: Inhibition of rat intestinal maltase alpha-glucosidase at 1000 uM.
In experiment [13] the test system is Canavalia ensiformis. Kind of experiment: Inhibition of jack beans alpha-mannosidase at 1000 uM.
Experiment [14] deals with Oligo-1,6-glucosidase IMA1 (Saccharomyces cerevisiae S288c) (UniProt P53051). The experiment is described as follows: Inhibition of yeast alpha-glucosidase at 1000 uM.
Sequence of Oligo-1,6-glucosidase IMA1 (Saccharomyces cerevisiae S288c) (P53051 whole entry): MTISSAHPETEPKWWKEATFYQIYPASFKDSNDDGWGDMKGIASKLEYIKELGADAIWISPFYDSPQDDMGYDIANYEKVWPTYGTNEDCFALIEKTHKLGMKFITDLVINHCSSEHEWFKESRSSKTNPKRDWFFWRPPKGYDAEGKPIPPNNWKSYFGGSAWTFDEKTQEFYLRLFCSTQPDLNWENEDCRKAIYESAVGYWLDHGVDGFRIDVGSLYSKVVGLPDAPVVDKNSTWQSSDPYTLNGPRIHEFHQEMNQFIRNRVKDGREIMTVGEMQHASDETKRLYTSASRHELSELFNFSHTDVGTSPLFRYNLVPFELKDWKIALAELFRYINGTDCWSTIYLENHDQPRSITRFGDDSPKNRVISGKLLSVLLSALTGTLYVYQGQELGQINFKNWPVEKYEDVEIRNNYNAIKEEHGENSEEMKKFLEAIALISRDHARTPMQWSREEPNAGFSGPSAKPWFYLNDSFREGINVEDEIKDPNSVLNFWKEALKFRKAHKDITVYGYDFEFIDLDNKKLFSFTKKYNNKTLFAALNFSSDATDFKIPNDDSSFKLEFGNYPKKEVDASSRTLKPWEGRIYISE

Usually inhibition stands for the percentage by which the read-out fell short of the control. As to `CC[C@@H]1N[C@H](CC)[C@H](O)[C@@H](O)[C@@H]1O`, the inhibition was found to be 3.4% in [1]; 4.9% in experiment [2]; 1.7% in [3]; 0% in experiment [4]; 3.7% in experiment [5]; 21.4% in [6]. For the same compound, the inhibition in [7] worked out at 0.5%; in [8] it was 4.1%; in experiment [9] it was 0%; in experiment [10] it was 0.3%; in [11], 0%; in [12], 0%. For the same compound, the figures for the inhibition in experiment [13] and in [14] were 0.4% and 2%, respectively.

Take `CCC[C@@H]1N[C@@H](CO)[C@@H](O)[C@H](O)[C@H]1O`: the inhibition in experiment [1] stood at 0%; in [2], 0%; in [3] it was 0%; in [4], 0%; in [5] it was 10.4%; in experiment [6], 42.6%. Moreover, the inhibition in experiment [7] was 0%; in experiment [8] it was 0%; in [9], 1.4%; in experiment [10] it was 1.3%; in experiment [11] it was 13%; in experiment [12] it was 0%. Also, the inhibition turned out to be 5.1% in [13] and 40% in [14].

For the compound `CC[C@@H]1NC[C@@H](O)[C@@H](O)[C@H](O)[C@H]1O`, the inhibition in experiment [1] is 0%; in experiment [2], 0%; in experiment [3], 0%; in experiment [4], 0%; in experiment [5], 7.5%; in [6] it was 48.7%. In addition, the inhibition in [7] stood at 0.1%; in experiment [8], 0%; in experiment [9] it was 0.2%; in experiment [10], 0%; in experiment [12], 13.7%; in experiment [13] it was 11%. For the same compound, the inhibition in [14] was 23.5%.

Regarding `CC[C@H]1NC[C@@H](O)[C@@H](O)[C@H](O)[C@H]1O`, the inhibition in [1] worked out at 0%; in [2], 3.9%; in experiment [3], 1%; in experiment [4], 0%; in [5] it was 1.2%; in experiment [6] it was 5.1%. For the same compound, the inhibition was determined as 0.1% in [7]; 0.8% in experiment [8]; 0% in [9]; 0% in [10]; 5.3% in experiment [11]; 0% in [12]. Further, the inhibition in experiment [13] and in experiment [14] was 0% throughout.

With `CC[C@H]1N[C@@H](CO)[C@@H](O)[C@H](O)[C@H]1O`, the inhibition in experiment [1] came to 0%; in [2] it was 0%; in experiment [3] it was 0%; in experiment [4], 0%; in experiment [5] it was 8.7%; in [6], 16.9%. Further, the inhibition in experiment [7] came to 0%; in experiment [8], 1.9%; in experiment [9], 0%; in [10], 0%; in experiment [11] it was 2.4%; in experiment [12] it was 3.3%. For the same compound, the inhibition came out at 5.1% in experiment [13] and 9% in experiment [14].

In the case of `CC[C@@H]1N[C@@H](CO)[C@@H](O)[C@H](O)[C@H]1O`, the inhibition was 0% in experiment [1]; 6% in experiment [2]; 0% in [3]; 0% in experiment [4]; 0.6% in [5]; 33.5% in experiment [6]. For the same compound, the inhibition in experiment [7] was 0.8%; in [8] it was 0%; in experiment [9] it was 6.1%; in experiment [10], 0%; in experiment [11], 37.7%; in experiment [12], 0%. The inhibition in experiment [13] and in experiment [14] was 0% in each case.
